Measured values from patent US20240352066A1, “ANTIMICROBIAL COMPOUNDS AND THE METHOD OF USE” (priority 2021, published 2024).
In brackets after ≈: the same amount, converted by molar mass. Where a SMILES comes first, the peptide text is derived from it. [ ]: non-standard residue; d: D form. NCyclohexylmethylGly = O=C(O)CNCC1CCCCC1; N(tridecyl)Gly = CCCCCCCCCCCCCNCC(=O)O; Gly(N-2-aminoethyl) = NCCNCC(=O)O; Gly(N-cHex) = O=C(O)CNC1CCCCC1; Gly(N-cPent) = O=C(O)CNC1CCCC1; N(iPr)Gly = CC(C)NCC(=O)O; NPhGly = O=C(O)CNc1ccccc1; NHexGly = CCCCCCNCC(=O)O; Nlys = NCCCCNCC(=O)O

Tests used:
[1] = Percent acetonitrile at elution during RP-HPLC purification (hydrophobicity); format: physicochemical; settings: percent acetonitrile at the time of elution from HPLC
Source text: All RMG8-8 derivatives were synthesized via the solid-phase submonomer synthesis method on polystyrene Rink Amide resin (Zuckermann et al. Journal of the American Chemical Society 114, 10646-10647 (1992)). The amines used during synthesis and the peptoid shorthand notations for each monomer are provided in Table 7 and Table 8, respectively. Compounds were purified to greater than 95% by RP-HPLC and compound identity was confirmed by ESI-TOF MS (Table 9). The calculated distribution coefficient at pH 7.4 (c Log D7.4) (via Chemaxon. MarvinSketch 19.17.0, 2019) and the percent acetonitrile at the time of elution during HPLC purification were recorded and serve as measures of hydrophobicity (Table 10). Higher values for c Log D7.4 and percent acetonitrile are indicators of increased compound hydrophobicity. With antimicrobial peptoids, hydrophobicity is directly related to both antimicrobial activity and cytotoxicity (Andreev et al. Biochimica et biophysica acta. Biomembranes 1860 6, 1414-1423 (2018); Bolt et al. Med chem comm 8, 886-896 (2017); Frederiksen et al. Molecules 24, (2019)). The ideal balance of these parameters generally must be determined experimentally. To measure antifungal activity, the minimum inhibitory concentration (MIC), defined as the concentration of compound required to inhibit 90% of fungal growth, was determined against C. neoformans using the broth microdilution method. Mammalian cytotoxicity was evaluated through a cell metabolic activity assay with HepG2 liver carcinoma cells, and select, potentially promising compounds were tested for unwanted hemolytic activity against human red blood cells.
Peptoids were purified via Reversed-Phase High-Performance Liquid Chromatography (RP-HPLC) using a Varian Prepstar SD-1. A gradient of 0-100% water to acetonitrile containing 0.05% TFA made up the mobile phase, and a Supelco Ascentis C18 column (5 μm; 25 cm×21.2 mm; Sigma-Aldrich 581347-U) was used as the stationary phase. Peaks in the chromatogram above 0.1 AU were collected and analyzed via mass spectrometry. The peak product with the desired peptoid was dried down in vacuo and lyophilized overnight. Peptoids were then reconstituted in sterile […] deionized water to create compound stocks of 20 mg/mL.

[2] = Mammalian cytotoxicity, MTT, HepG2; format: cell-based, human; settings: human, HepG2 hepatocellular carcinoma cells
Experimental: (§1) Hepatocellular carcinoma (HepG2), mouse fibroblast (3T3), human lung (HPL1A), and human keratinocyte (HaCat) cells were cultured in Dulbecco modified eagle media (DMEM) containing 10% fetal bovine serum (FBS) and 1% penicillin, streptomycin, and glutamine (PSG) at 37° C. and 5% CO2. Cells were collected and adjusted to […] to 4×10^5 cells/mL in phenol-red free DMEM and plated (100 μL) 96 well plates. 2-fold serial dilutions of 10× peptoid (11.1 μL) were added to each well in triplicate. Water (vehicle) was used as a negative control. Plates were incubated at 37° C. in 5% CO2 for 72 hours. Thiazolyl blue tetrazolium bromide (MTT) was added to each well (5 mg/mL; 20 μL) and incubated for 3 hours. Media was removed, DMSO (100 μL) was added, and plates were incubated at 37° C. for 10 minutes. Plates were read on a SpectraMax M5 plate reader (Abs. 570 nm). The concentration of compound resulting in a 50% reduction in growth compared to control (toxicity dose 50%; TD50) was determined using GraFit. This procedure was repeated three times on separate days.
(§2) Cytotoxicity against HepG2 hepatocellular carcinoma cells was done as previously described (Green et al. ACS infectious diseases, (2022); Corson et al. ACS medicinal chemistry letters 7 12, 1139-1144 (2016)). HepG2 cells were maintained in culture in T-75 flasks using Dulbecco's Modified Eagle's Media (DMEM) with phenol red pH indicator and supplemented with 10% fetal bovine serum (FBS) and 1% penicillin, streptomycin, and glutamine (PSG). The cells were incubated at 37° C. and 5% CO2 in a humidified incubator until desired confluency was achieved. The media was removed from the flask, and the cells were washed 1× with 10 mL of phosphate-buffered saline (PBS; 11.8 mM phosphate, 140.4 mM NaCl; pH 7.4) which was then discarded. To remove the adhered cells from the flask, 2 mL of trypsin was added, and the cells were incubated for 10 minutes. To quench the trypsin, 8 mL of phenol red-free DMEM with 10% FBS and 1% PGS was added, and the cell solution was transferred to a 15 mL conical tube. After the cells were pelleted by centrifugation at 1000 rpm for 5 minutes, the supernatant was poured off and cells resuspended in the volume of phenol red-free media needed for the assay. Cell concentration was determined by counting with a hemocytometer, and the solution was diluted with media until a concentration of 1×10^5 cells/mL was achieved. A 100 μL aliquot of cell solution was added to each well of a 96-well plate, apart from the 3 wells used for a media control. Cells were incubated for 2-3 hours at 37° C. and 5% CO2 until cells were adherent.
(§3) Compound stocks of 20 mg/mL were used to prepare 2-fold serial dilutions of each compound in sterile water, giving final concentrations of 200, 100, 50, 25, 12.5, 6.25, 3.13 and 1.56 μg/mL. 11.1 μL of prepared compound solutions was added to the appropriate wells in triplicate. A negative vehicle control of sterile water, as well as the aforementioned media control, were used. The plates were incubated for 72 hours at 37° C. and 5% CO2. After incubation, 20 μL of 5 mg/mL 3-(4,5-dimethylthiazol-2-yl)-2,5-diphenyltetrazolium bromide (MTT) in water was added to each well. The plate was incubated for 3 hours at 37° C. and 5% CO2. Media was removed from each well using a sterile glass Pasteur pipette. 100 μL of DMSO was added to each well and incubated for 15 minutes at 37° C. Absorbance was read at 570 nm using a SpectraMax M5 Plate Reader. This MTT assay was performed in biological duplicate unless discrepant results were observed. If this was the case, the assay was performed in biological triplicate for further verification. The reported value is the average of biological replicates with standard deviation.

C. neoformans [3] = format: cell-based, Cryptococcus neoformans; settings: 72 h
Experimental: The minimum inhibitory concentration (MIC) of peptoids against fungal pathogens C. albicans and C. neoformans was determined following CLSI guidelines (CLSI. Reference method for broth dilution antifungal susceptibility testing of yeasts; approved standard-third edition; CLSI document M27-A3. (Clinical and Laboratory Standards Institute, 2008). […] This inoculant was diluted 1:100 into RPMI-MOPS and then further diluted 1:20 into RPMI-MOPS. 198 μL of inoculant was seeded into each well of a 96 well black-walled plate. 2-fold serial dilutions of 100× peptoid solutions were prepared in water and 2 μL of peptoid were added to each well in triplicate. […] MIC was defined as the lowest concentration of compound preventing fungal growth. This assay was repeated 3 times on separate days with each compound. […] The addition of 0.1 mL cell solution to 9.9 mL of RPMI-MOPS produced a 1:100 cell solution. After vortexing, 0.5 mL of the […] was added to 9.5 mL RPMI-MOPS to produce a 1:20 cell solution. 198 μL of the 1:20 solution was added to the wells of an opaque 96-well plate, apart from the wells designated for the medial control. […] Amphotericin B was used as a positive control, and sterile water was used for the vehicle control. The plates were incubated for 72 hours at 35° C. After incubation, the concentration of compound resulting in no visual growth was recorded as the MIC. All assays performed in biological triplicate on different days.

[4] = test system: HepG2 hepatocellular carcinoma cells; test: Mammalian cytotoxicity, MTT, HepG2; format: cell-based, human
Experimental: as §1, §2, §3

C. neoformans [5] = test: microbe, parasite or virus in culture; format: cell-based, Cryptococcus neoformans; settings: for interpretation of combination with RMG8-8: FICi<0.5 synergistic, 0.5≤FICi≤4 indifferent, FICi>4 antagonist; for Combination MIC RMG8-8:Drug, RMG8-8 part: RMG8-8 concentration in combination with the named drug; for Combination MIC RMG8-8:Drug, Drug part: drug concentration in combination with RMG8-8; for FICi: named drug in combination with RMG8-8
Experimental: Cell solution was diluted into RPMI-MOPS (1:100) followed by another dilution into RPMI-MOPS (1:20). […] Plates were incubated for 72 hours at 35° C. MIC was determined as the lowest concentration of individual compound or combined compounds inhibiting pathogen growth. Fractional inhibitory concentration index (FICi) was determine using the following equation: FICi values were interpreted as follows: FICi<0.5 synergistic; 0.5≤FICi≤4 indifferent; FICi>4 antagonist (Johnson et al., Antimicrob. Agents Chemother. 48, 693-715 (2004)).

| % ACN [1] | C. neoformans MIC (C. neoformans [3]) | Combination MIC RMG8-8:Drug, RMG8-8 part (C. neoformans [5]) | MIC (compound alone) (C. neoformans [5]; checkerboard, 72 hours at 35° C.) | Combination MIC RMG8-8:Drug, Drug part (C. neoformans [5]) | MIC (C. neoformans [5]; Cryptococcus neoformans, checkerboard, 72 hours at 35° C., read-out: MIC (compound alone)) | Compound | CC50 at 72 h [2] | HepG2 TD50 [4] | interpretation of combination with RMG8-8 (C. neoformans [5]) | FICi (C. neoformans [5]) |
| --- | --- | --- | --- | --- | --- | --- | --- | --- | --- | --- |
| 71.4% | 1.56 to 3.13 µg/mL | – | – | – | – | CCCCCCCCCCCCCNCC(=O)N(CC(=O)N(CCCCN)CC(=O)N(CCN)CC(=O)N(CC(N)=O)CC1CCCCC1)CC1CCCCC1 [Compound 12] (H-[N(tridecyl)Gly][NCyclohexylmethylGly][Nlys][Gly(N-2-aminoethyl)][NCyclohexylmethylGly]-NH2) | 62 ± 3 µg/mL (≈ 78.4 µM) | – | – | – |
| 68.1% | 6.25 µg/mL | – | – | – | – | CCCCCCCCCCCCCNCC(=O)N(CC(=O)N(CCCCN)CC(=O)N(CCN)CC(=O)N(CC(N)=O)C1CCCC1)C1CCCC1 [Compound 11] (H-[N(tridecyl)Gly][Gly(N-cPent)][Nlys][Gly(N-2-aminoethyl)][Gly(N-cPent)]-NH2) | > 200 µg/mL | greater than 200 μg/mL | – | – |
| 67.7% | 1.56 to 3.13 µg/mL | – | – | – | – | CCCCCCCCCCCCCNCC(=O)N(CC(=O)N(CCCCN)CC(=O)N(CCN)CC(=O)N(CC(N)=O)c1ccccc1)c1ccccc1 [Compound 14] (H-[N(tridecyl)Gly][NPhGly][Nlys][Gly(N-2-aminoethyl)][NPhGly]-NH2) | 81 ± 25 µg/mL (≈ 108 µM) | – | – | – |
| – | – | 1.56 µg/mL | – | 2 µg/mL | 2 µg/mL | OC(Cn1cncn1)(Cn1cncn1)c1ccc(F)cc1F [Fluconazole] | – | – | indifferent | 2 |
| 67.3% | 12.5 to 25 µg/mL | – | – | – | – | CCCCCCCCCCCCCNCC(=O)N(CC(=O)N(CCCCN)CC(=O)N(CCN)CC(=O)N(CC(N)=O)CC1CCCO1)CC1CCCO1 (stereo not shown) [Compound 13] | > 200 µg/mL | greater than 200 μg/mL | – | – |

Further lines, the compound ahead of its results:

| Compound | % ACN [1] | C. neoformans MIC (C. neoformans [3]) | Combination MIC RMG8-8:Drug, RMG8-8 part (C. neoformans [5]) | MIC (compound alone) (C. neoformans [5]; checkerboard, 72 hours at 35° C.) | Combination MIC RMG8-8:Drug, Drug part (C. neoformans [5]) | MIC (C. neoformans [5]; Cryptococcus neoformans, checkerboard, 72 hours at 35° C., read-out: MIC (compound alone)) | CC50 at 72 h [2] | HepG2 TD50 [4] | interpretation of combination with RMG8-8 (C. neoformans [5]) | FICi (C. neoformans [5]) |
| --- | --- | --- | --- | --- | --- | --- | --- | --- | --- | --- |
| CCCCCCCCCCCCCNCC(=O)N(CCCCCC)CC(=O)N(CCCCN)CC(=O)N(CCN)CC(=O)N(CCCCCC)CC(N)=O [Compound 10] (H-[N(tridecyl)Gly][NHexGly][Nlys][Gly(N-2-aminoethyl)][NHexGly]-NH2) | 73.3% | 1.56 to 3.13 µg/mL | – | – | – | – | 61 ± 9 µg/mL (≈ 79.5 µM) | – | – | – |
| CCCCCCCCCCCCCNCC(=O)N(CC(=O)N(CCCCN)CC(=O)N(CCN)CC(=O)N(CC(N)=O)C(C)C)C(C)C [Compound 8] (H-[N(tridecyl)Gly][N(iPr)Gly][Nlys][Gly(N-2-aminoethyl)][N(iPr)Gly]-NH2) | 66.7% | 25 µg/mL | – | – | – | – | > 200 µg/mL | greater than 200 μg/mL | – | – |
| CCCCCCCCCCCCCNCC(=O)N(CCCCN)CC(=O)N(CC(=O)N(CC(=O)N(CCN)CC(N)=O)C1CCCCC1)C1CCCCC1 [Compound 3] (H-[N(tridecyl)Gly][Nlys][Gly(N-cHex)][Gly(N-cHex)][Gly(N-2-aminoethyl)]-NH2) | 69.3% | 3.13 µg/mL | – | – | – | – | 105 ± 3.8 µg/mL (≈ 138 µM) | – | – | – |
| CCCCCCCCCCCCCNCC(=O)N(CC(=O)N(CCCC[N+](C)(C)C)CC(=O)N(CC[N+](C)(C)C)CC(=O)N(CC(N)=O)C1CCCCC1)C1CCCCC1 [Compound 1] | – | 12.5 µg/mL | – | – | – | – | > 200 µg/mL | > 200 µg/mL | – | – |
| C[C@@H]1[C@H](O)[C@@H](C)/C=C/C=C/C=C/C=C/C=C/C=C/C=C/[C@H](O[C@@H]2O[C@H](C)[C@@H](O)[C@H](N)[C@@H]2O)C[C@@H]2O[C@](O)(C[C@@H](O)C[C@@H](O)[C@H](O)CC[C@@H](O)C[C@@H](O)CC(=O)O[C@H]1C)C[C@H](O)[C@H]2C(=O)O [Amphotericin B] | – | – | 0.8 µg/mL | 0.25 µg/mL | 0.06 µg/mL | – | – | – | mild additive effect | 0.75 |
